The structures appear in SMILES notation. pEC50: −log10 of the molar value. Values after ≈ are worked out from the molar mass of the structure shown. Like-named read-outs stand apart in the source and are kept apart here.

The values that follow come from US20090233998A1, “Desmosdumotins, the Method for Preparing the Same and Use as Anti-Tumor or Anti-AIDS Agents” (priority 2004, published 2009).

In data set [1] the test system is 1A9 (human ovarian carcinoma). Briefly: in vitro cytotoxicity against human tumor cell replication, 1A9. The data set is classed as cell-based. The note with it: for pEC50: read-out: ED50 (the source's name). From the text: (§1) Cancer cell used in cytotoxicity evaluation in vitro were all from human, including lung cancer cell line (A549), breast cancer cell line (MCF-7), ovarian cancer cell line (1A9), epidermoid nasopharyngeal carcinoma cell line (KB), vincristine-resistant cells (KB-VIN), melanoma cancer cell line (SK-MEL-2), ileocecal cancer cell line (HCT-8), renal carcinoma cell line (CAKI), bone cancer cell line (HOS), et al. the anti-cancer ability of the compound represented by half-effective amount (ED50). Control drug was V16 (Etoposide).

The test system of data set [2] is KB-VIN (vincristine-resistant KB cells, multi-drug resistant expressing P-glycoprotein). Briefly: in vitro cytotoxicity against human tumor cell replication, KB-VIN. The data set is classed as cell-based. The note with it: for pEC50: read-out: ED50 (the source's name).
Excerpt: as §1

The subject of data set [3] is KB (human epidermoid carcinoma of the nasopharynx). Briefly: in vitro cytotoxicity against human tumor cell replication, KB. The data set is classed as cell-based. To be noted: for pEC50: read-out: ED50 (the source's name).
Excerpt: as §1

The test system of data set [4] is A549 (human lung carcinoma). Put plainly: in vitro cytotoxicity against human tumor cell replication, A549. The data set is classed as cell-based. To be noted: for pEC50: read-out: ED50 (the source's name).
Excerpt: as §1

The test system of another data set is human tumor cell lines. Briefly: in vitro evaluation against a panel of several cancer cell lines. The data set is classed as cell-based.
Excerpt: as §1

Data set [5] deals with MCF-7 (breast cancer cell line). Put plainly: in vitro cytotoxicity against human tumor cell replication, MCF-7. The data set is classed as cell-based.
Excerpt: as §1

The subject of the next data set is Kunming mice. Briefly: in vivo. To be noted: for Death Rate: Kunming, mouse, in vivo, iv, 14 days. Here is the method:
(§2) The tumor activity […] testing represented by acute toxicity test and tumor-inhibiting testing of mice S180, Method: LD50 of desmosdumotin C to Kunming mice by vein route was obtained by the general acute toxicity test method. Sarcoma S180 was hypodermic inoculated to mice, drug administrated, compared drug group with control group, inhibition rate was calculated, P value show the statistical difference. […].

A further data set is described as follows: in vivo. To be noted: both sexes, Kunming, mouse, in vivo, Kunming mice, single vein injection, half male/half female. Here is the method: as §2
Data set [6] deals with KB (human epidermoid carcinoma of the nasopharynx). The note with it: parent KB cell line; background section; cited from earlier work.
In the next data set the test system is Sarcoma S180. Put plainly: tumor-inhibiting test of mice S180. The data set is classed as in vivo, Kunming mice. To be noted: for Inhibition Rate: S180 tumor growth. Here is the method:
as §2

The test system of data set [7] is 1A9 (human ovarian carcinoma). The note with it: IA9 ovarian cancer cell; background section; cited from earlier work.
Data set [8] relates to KB-VIN (vincristine-resistant KB cells, multi-drug resistant expressing P-glycoprotein). The note with it: background section; cited from earlier work.
The test system of data set [9] is MCF-7 (breast cancer cell line). To be noted: background section; cited from earlier work.

Turning to `COC1=C(C)C(=O)C(=C(O)C=Cc2ccc(Br)cc2)C(=O)C1(C)C` [Compound 2, 2-[1′-Hydroxy-3-(4-bromophenyl)-allylidene]-5-methoxy-4,6,6-trimethylcyclohex-4-ene-1,3-dione], the pEC50 in data set [1] (Homo sapiens) was 5.55; in [2] (Homo sapiens, KBVIN), 5.32; in data set [3] (Homo sapiens) it was 5.36; in data set [4] (Homo sapiens), 5.45.

In the case of `COC1=C(C)C(=O)C(=C(O)C=Cc2ccccc2OC)C(=O)C1(C)C` [Compound 3, 2-[1′-Hydroxy-3-(2-methoxyphenyl)-allylidene]-5-methoxy-4,6,6-trimethylcyclohex-4-ene-1,3-dione], the “activity relative to desmosdumotin C” value in the data set with human tumor cell lines (fold of desmosdumotin C) was 4 times. Also, the pEC50 in data set [1] (Homo sapiens) was 5.09; in data set [2] (Homo sapiens, KBVIN), 5.07; in data set [3] (Homo sapiens) it was 4.98; in data set [4] (Homo sapiens), 5.06.

As for `CC1=C(O)C(C)(C)c2oc(-c3ccccc3)cc(=O)c2C1=O` [Desmosdumotin B, 7-hydroxyl-6,8,8-trimethyl-2-phenyl-8H-chromene-4,5-dione], the ED50 in data set [1] is 36.0 µg/mL (≈ 121 µM); in data set [2], 2.0 µg/mL (≈ 6.75 µM); in data set [3] it was more than 40 µg/mL; in data set [4], 28.0 µg/mL (≈ 94.5 µM); in data set [5], more than 5 µg/mL.

As to `COC1=C(C)C(=O)C(=C(O)C=Cc2ccccc2)C(=O)C1(C)C` [Compound 13, 2-[(1′-hydroxy-2′-ene-3′-phenyl)propenylene)-5-methoxy-4,6,6-trimethyl-1,3-cyclohexene (4,5)-diketone], the ED50 in data set [1] was 3.63 µg/mL (≈ 11.6 µM); in [2], 2.9 µg/mL (≈ 9.28 µM); in [3], 4.1 µg/mL (≈ 13.1 µM); in data set [4] it was more than 5 µg/mL; in data set [5] it was more than 5 µg/mL.

As to `CC1=C(O)C2=C(OC(c3ccccc3)CC2=O)C(C)(C)C1=O` (stereo not drawn) [Compound 11, 7-hydroxyl-6,8,8-trimethyl-2-phenyl-2,3-dihydrogen-8H-chromene-4,5-dione], the ED50 in [1] was 8.0 µg/mL (≈ 26.8 µM); in data set [2], 7.5 µg/mL (≈ 25.1 µM); in data set [3] it was 10.5 µg/mL (≈ 35.2 µM); in data set [4] it was 13.5 µg/mL (≈ 45.3 µM); in data set [5], more than 5 µg/mL.

Turning to `COC1=CC(=O)c2c(oc(-c3ccccc3)cc2=O)C1(C)C` [Compound 14, 7-methoxy-8,8-dimethyl-2-phenyl-8H-chromene-4,5-dione], the values for the ED50 in data set [1], in data set [3] and in data set [4] were 0.7 µg/mL (≈ 2.36 µM), 1.8 µg/mL (≈ 6.07 µM) and 2.0 µg/mL (≈ 6.75 µM), respectively.

As to `COC1=C(C)C(=O)C(=C(O)C=Cc2cccs2)C(=O)C1(C)C` [Compound 8, 2-(1′-Hydroxy-3′-thiophen-2″-yl-allylidene)-5-methoxy-4,6,6-trimethyl-cyclohex-4-ene-1,3-dione], the pEC50 in [1] was 4.90; in data set [2] it was 4.97; in data set [3], 4.76; in [4] it was 4.85.

With `COC1=C(C)C(=O)C(=C(O)C=Cc2ccc(O)cc2)C(=O)C1(C)C` [Compound 6, 2-[1′-Hydroxy-3-(4-hydroxyphenyl)-allylidene]-5-methoxy-4,6,6-trimethyl-cyclohex-4-ene-1,3-dione], the pEC50 in data set [1] (Homo sapiens) was 5.05; in [2] (Homo sapiens, KBVIN) it was 4.93; in data set [3] (Homo sapiens), 4.93; in [4] (Homo sapiens), 5.02.

Consider `COC1=C(C)C(=O)C(=C(O)C=Cc2cccc(OC)c2)C(=O)C1(C)C` [Compound 4, 2-[1′-Hydroxy-3-(3-methoxyphenyl)-allylidene]-5-methoxy-4,6,6-trimethyl-cyclohex-4-ene-1,3-dione], for which the “anti-tumor activity compared with the leading compound” value in the data set with human tumor cell lines (versus desmosdumotin C) is given as “more significant anti-tumor activity than the leading compound”. The ED50 in data set [1] is 0.7 µg/mL (≈ 2.04 µM). For the same molecule, the pEC50 was 5.07 in [1] (Homo sapiens); 5.16 in data set [2] (Homo sapiens, KBVIN); 5.02 in [3] (Homo sapiens); 5.09 in data set [4] (Homo sapiens).

As to `COC1=C(C)C(=O)C(=C(O)C=Cc2ccc(OC)cc2)C(=O)C1(C)C` [Compound 5, 2-[1′-Hydroxy-3-(4-methoxyphenyl)-allylidene]-5-methoxy-4,6,6-trimethyl-cyclohex-4-ene-1,3-dione], the pEC50 is 5.14 in [1] (Homo sapiens); 5.09 in data set [2] (Homo sapiens, KBVIN); 5.02 in data set [3] (Homo sapiens); 5.16 in data set [4] (Homo sapiens).

Regarding `COC1=C(C)C(=O)/C(=C(O)/C=C/c2ccccc2)C(=O)C1(C)C` [Desmosdumotin C, 2-[(1′-hydroxy-2′-ene-3′-phenyl)propenylene]-5-methoxy-4,6,6-trimethyl-1,3-cyclohexene (4,5)-dione], the LD50 in the data set on Kunming mice (Kunming mice, single vein injection, half male/half female) was 46.0 mg/kg; in the data set “in vivo” (read-out: LD50), more than 46 mg/kg; in “in vivo” (read-out: LD50 (95% CL)), 39.8 to 53.1 mg/kg. Besides, the “Death Rate” value in the data set on Kunming mice (both, 32.8 mg/kg) came out at 0%; in the data set on Kunming mice (both, 40.96 mg/kg) it was 40%; in the data set with Kunming mice (both, 51.2 mg/kg) it was 70%; in the data set with Kunming mice (both, 64 mg/kg), 90%; in the data set on Kunming mice (both, 80 mg/kg), 100%; in the data set with Kunming mice (female, 32.8 mg/kg), 0%. The “Death Rate” value is recorded as 40% in the data set with Kunming mice (female, 40.96 mg/kg); 80% with Kunming mice (female, 51.2 mg/kg); 80% in the data set on Kunming mice (female, 64 mg/kg); 100% in the data set on Kunming mice (female, 80 mg/kg); 0% in the data set with Kunming mice (male, 32.8 mg/kg); 40% in the data set on Kunming mice (male, 40.96 mg/kg). Moreover, the “Death Rate” value in the data set on Kunming mice (male, 51.2 mg/kg) is 60%; with Kunming mice (male, 64 mg/kg), 100%; in the data set on Kunming mice (male, 80 mg/kg) it was 100%. The ED50 in data set [6] is less than 6.5 µg/mL; in [7] it was less than 4.0 µg/mL; in data set [8], less than 5.6 µg/mL; in data set [9] it was less than 3.8 µg/mL. The pEC50 in data set [1] (Homo sapiens) was 4.89; in data set [2] (Homo sapiens, KBVIN), 4.75; in data set [3] (Homo sapiens) it was 4.68; in [5] (Homo sapiens, MCF7, read-out: ED50 (the source's name)), 4.89. Besides, the “Tumor Weight X ± SD” value with Sarcoma S180 (S180, 2.5 mg/kg iv × 10qd) was found to be 1.99 ± 0.18; in the data set with Sarcoma S180 (S180, 5 mg/kg iv × 10qd) it was 1.62 ± 0.22; in the data set on Sarcoma S180 (S180, 10 mg/kg iv × 10qd), 1.51 ± 0.21. Moreover, the “Inhibition Rate” value with Sarcoma S180 (2.5 mg/kg iv × 10qd) is listed as 30.18%; in the data set with Sarcoma S180 (5 mg/kg iv × 10qd), 43.16%; with Sarcoma S180 (10 mg/kg iv × 10qd), 47.02%.

Take `CC1=C(O)C(C)(C)C(=O)/C(=C(O)\C=C\c2ccccc2)C1=O` [Compound 12, 2-[(1′-hydroxy-2′-ene-3′-phenyl)propenylene]-5-hydroxy-4,6,6-trimethyl-1,3-cyclohexene(4,5)-dione]: the ED50 in data set [1] was 8.0 µg/mL (≈ 26.8 µM); in data set [2], 6.5 µg/mL (≈ 21.8 µM); in [3] it was 10.5 µg/mL (≈ 35.2 µM); in data set [4], 9.0 µg/mL (≈ 30.2 µM); in data set [5], more than 5 µg/mL.

Consider `COC1=C(C)C(=O)C(=C(O)C=Cc2ccco2)C(=O)C1(C)C` [Compound 7, 2-(3′-Furan-2″-yl-1′-hydroxy-allylidene)-5-methoxy-4,6,6-trimethyl-cyclohex-4-ene-1,3-dione], for which the pEC50 in data set [1] is 4.58; in data set [2], 4.54; in data set [3] it was 4.49; in data set [4] it was 4.48.

For `COC1=C(C)C(=O)C(=C(O)C=Cc2nccs2)C(=O)C1(C)C` [Compound 9], the pEC50 in data set [1] was 4.96; in data set [2], 5.03; in [3] it was 4.87; in data set [4], 4.96.

In general, LD50 refers to the dose at which mortality reaches 50%.
